Source: US8846947B2, “Benzimidazoles and related analogs as sirtuin modulators” (GlaxoSmithKline LLC, priority 2008, dated 2014)

Biological target: T1, SIRT1 (Homo sapiens, UniProt Q96EB6)
T1 sequence (Q96EB6 1-747): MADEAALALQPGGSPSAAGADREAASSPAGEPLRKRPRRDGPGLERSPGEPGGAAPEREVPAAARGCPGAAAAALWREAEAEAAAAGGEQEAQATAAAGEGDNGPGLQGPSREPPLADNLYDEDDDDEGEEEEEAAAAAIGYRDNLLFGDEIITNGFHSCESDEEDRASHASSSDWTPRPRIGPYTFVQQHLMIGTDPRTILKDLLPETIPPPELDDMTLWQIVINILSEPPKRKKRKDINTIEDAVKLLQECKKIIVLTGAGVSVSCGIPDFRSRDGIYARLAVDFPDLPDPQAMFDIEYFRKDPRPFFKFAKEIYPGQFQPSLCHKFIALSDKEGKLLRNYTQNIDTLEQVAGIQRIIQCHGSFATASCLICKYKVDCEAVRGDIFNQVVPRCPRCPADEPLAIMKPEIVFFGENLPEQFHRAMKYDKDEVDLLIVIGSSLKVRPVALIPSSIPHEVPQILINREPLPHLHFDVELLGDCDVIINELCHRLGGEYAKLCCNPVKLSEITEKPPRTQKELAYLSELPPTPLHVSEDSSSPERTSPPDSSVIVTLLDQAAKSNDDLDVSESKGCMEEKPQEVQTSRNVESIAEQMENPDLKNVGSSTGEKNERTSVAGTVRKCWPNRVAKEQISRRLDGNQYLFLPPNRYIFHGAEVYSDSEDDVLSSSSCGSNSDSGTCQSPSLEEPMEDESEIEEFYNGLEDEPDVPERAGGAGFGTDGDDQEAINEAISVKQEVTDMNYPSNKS
Experiment: Mass spectrometry based SIRT1 deacetylase activation assay (acetylated p53-derived peptide substrate)
Format: biochemical

| EC1.5 | Fold Act. (percent maximum fold activation) | Compound |
| --- | --- | --- |
| B (EC1.5 1-25 uM) | A (Fold activation >200%) | O=C(Nc1nccs1)c1cccc2[nH]c(-c3cccc(OCCN4CCOCC4)c3)nc12 [Compound 347] |
| A (EC1.5<1.0 uM) | A (Fold activation >200%) | O=C(Nc1nccs1)c1cccc2[nH]c(-c3ccc(-c4nnn[nH]4)cc3)nc12 [Compound 348] |
| A (EC1.5<1.0 uM) | B (Fold Activation <200%) | O=C(Nc1cccnc1)c1cccc2[nH]c(-c3ccc(-c4nnn[nH]4)cc3)nc12 [Compound 349] |
| B (EC1.5 1-25 uM) | A (Fold activation >200%) | O=C(Nc1cccnc1)c1cccc2[nH]c(-c3cccc(CN4CCOCC4)c3)nc12 [Compound 350] |
| B (EC1.5 1-25 uM) | A (Fold activation >200%) | O=C(Nc1nccs1)c1cccc2[nH]c(-c3cccc(CN4CCCC4)c3)nc12 [Compound 351] |
| B (EC1.5 1-25 uM) | A (Fold activation >200%) | O=C(Nc1cccnc1)c1cccc2[nH]c(-c3cccc(CN4CCCC4)c3)nc12 [Compound 352] |
| C (EC1.5 >25 uM) | B (Fold Activation <200%) | O=C(NC1CCOC1=O)c1cccc2[nH]c(-c3ccccc3C(F)(F)F)nc12 (stereo not drawn) [Compound 353] |
| A (EC1.5<1.0 uM) | A (Fold activation >200%) | Cc1cc(NC(=O)c2cccc3[nH]c(-c4ccccc4C(F)(F)F)nc23)n(C)n1 [Compound 354] |
| B (EC1.5 1-25 uM) | A (Fold activation >200%) | O=C(NC1CCOC1=O)c1cccc2[nH]c(-c3ccc(Cl)cc3C(F)(F)F)nc12 (stereo not drawn) [Compound 355] |
| A (EC1.5<1.0 uM) | A (Fold activation >200%) | Cc1cc(NC(=O)c2cccc3[nH]c(-c4ccc(Cl)cc4C(F)(F)F)nc23)n(C)n1 [Compound 356] |
| A (EC1.5<1.0 uM) | A (Fold activation >200%) | Cc1cnc(NC(=O)c2cccc3[nH]c(-c4ccc(F)cc4C(F)(F)F)nc23)s1 [Compound 357] |
| A (EC1.5<1.0 uM) | A (Fold activation >200%) | Cc1nc(NC(=O)c2cccc3[nH]c(-c4ccc(F)cc4C(F)(F)F)nc23)sc1C [Compound 358] |
| A (EC1.5<1.0 uM) | A (Fold activation >200%) | Cc1cc(C)nc(NC(=O)c2cccc3[nH]c(-c4ccc(F)cc4C(F)(F)F)nc23)c1 [Compound 359] |
| A (EC1.5<1.0 uM) | A (Fold activation >200%) | O=C(Nc1nccs1)c1cccc2[nH]c(-c3cccc(-c4nnn[nH]4)c3)nc12 [Compound 360] |
| A (EC1.5<1.0 uM) | A (Fold activation >200%) | O=C(Nc1ccccn1)c1cccc2[nH]c(-c3cccc(-c4nnn[nH]4)c3)nc12 [Compound 361] |
| A (EC1.5<1.0 uM) | A (Fold activation >200%) | O=C(Nc1cccnc1)c1cccc2[nH]c(-c3cccc(-c4nnn[nH]4)c3)nc12 [Compound 362] |
| B (EC1.5 1-25 uM) | A (Fold activation >200%) | O=C(Nc1cccc2[nH]c(-c3ccccc3C(F)(F)F)nc12)c1cscn1 [Compound 363] |
| B (EC1.5 1-25 uM) | A (Fold activation >200%) | O=C(Nc1cccc2[nH]c(-c3ccccc3C(F)(F)F)nc12)c1ccccn1 [Compound 364] |
| B (EC1.5 1-25 uM) | A (Fold activation >200%) | O=C(Nc1cccc2[nH]c(-c3ccccc3C(F)(F)F)nc12)c1cccnc1 [Compound 365] |
| B (EC1.5 1-25 uM) | A (Fold activation >200%) | O=C(Nc1cccc2[nH]c(-c3ccccc3C(F)(F)F)nc12)c1cnccn1 [Compound 366] |
| B (EC1.5 1-25 uM) | A (Fold activation >200%) | O=C(Nc1cccc2[nH]c(-c3cccc(N4CCOCC4)c3)nc12)c1ccccn1 [Compound 367] |
| A (EC1.5<1.0 uM) | A (Fold activation >200%) | Cc1nc(-c2ccccc2)c(-c2nc3c(C(=O)Nc4nccs4)cccc3[nH]2)s1 [Compound 368] |
| A (EC1.5<1.0 uM) | A (Fold activation >200%) | Cc1nc(-c2ccccc2)c(-c2nc3c(C(=O)Nc4ccccn4)cccc3[nH]2)s1 [Compound 369] |

| EC1.5 | Fold Act. (percent maximum fold activation) | Compound |
| --- | --- | --- |
| A (EC1.5<1.0 uM) | A (Fold activation >200%) | Cc1nc(-c2ccccc2)c(-c2nc3c(C(=O)Nc4cccnc4)cccc3[nH]2)s1 [Compound 370] |
| A (EC1.5<1.0 uM) | A (Fold activation >200%) | CN1CCOc2cc(-c3nc4c(C(=O)Nc5nccs5)cccc4[nH]3)cnc21 [Compound 371] |
| A (EC1.5<1.0 uM) | A (Fold activation >200%) | CN1CCOc2cc(-c3nc4c(C(=O)Nc5cccnc5)cccc4[nH]3)cnc21 [Compound 372] |
| B (EC1.5 1-25 uM) | A (Fold activation >200%) | O=C(Nc1cccnc1)c1cccc2[nH]c(-c3ccnc(N4CCCCC4)c3)nc12 [Compound 373] |
| C (EC1.5 >25 uM) | B (Fold Activation <200%) | O=C(NC1CCOC1=O)c1cccc2[nH]c(-c3ccc(F)cc3C(F)(F)F)nc12 (stereo not drawn) [Compound 374] |
| A (EC1.5<1.0 uM) | A (Fold activation >200%) | Cc1cc(NC(=O)c2cccc3[nH]c(-c4ccc(F)cc4C(F)(F)F)nc23)n(C)n1 [Compound 375] |
| A (EC1.5<1.0 uM) | A (Fold activation >200%) | Cc1cnc(NC(=O)c2cccc3[nH]c(-c4cc(F)ccc4C(F)(F)F)nc23)s1 [Compound 376] |
| A (EC1.5<1.0 uM) | A (Fold activation >200%) | Cc1nc(NC(=O)c2cccc3[nH]c(-c4cc(F)ccc4C(F)(F)F)nc23)sc1C [Compound 377] |
| C (EC1.5 >25 uM) | B (Fold Activation <200%) | O=C(NC1CCOC1=O)c1cccc2[nH]c(-c3cc(F)ccc3C(F)(F)F)nc12 (stereo not drawn) [Compound 378] |
| A (EC1.5<1.0 uM) | A (Fold activation >200%) | Cc1cc(C)nc(NC(=O)c2cccc3[nH]c(-c4cc(F)ccc4C(F)(F)F)nc23)c1 [Compound 379] |
| A (EC1.5<1.0 uM) | A (Fold activation >200%) | Cc1cc(NC(=O)c2cccc3[nH]c(-c4cc(F)ccc4C(F)(F)F)nc23)n(C)n1 [Compound 380] |
| A (EC1.5<1.0 uM) | A (Fold activation >200%) | Cc1cnc(NC(=O)c2cccc3[nH]c(-c4ccnn4-c4ccccc4)nc23)s1 [Compound 381] |
| A (EC1.5<1.0 uM) | A (Fold activation >200%) | Cc1nc(NC(=O)c2cccc3[nH]c(-c4cccc(N5CCOCC5)c4)nc23)sc1C [Compound 382] |
| B (EC1.5 1-25 uM) | B (Fold Activation <200%) | CC1(C)Cc2cccc(-c3nc4c(C(=O)Nc5nccs5)cccc4[nH]3)c2O1 [Compound 383] |
| B (EC1.5 1-25 uM) | A (Fold activation >200%) | O=C(Nc1cccc2[nH]c(-c3cc(F)ccc3C(F)(F)F)nc12)c1cscn1 [Compound 384] |
| B (EC1.5 1-25 uM) | A (Fold activation >200%) | O=C(Nc1cccc2[nH]c(-c3cc(F)ccc3C(F)(F)F)nc12)c1ccccn1 [Compound 385] |
| B (EC1.5 1-25 uM) | A (Fold activation >200%) | O=C(Nc1cccc2[nH]c(-c3cc(F)ccc3C(F)(F)F)nc12)c1cccnc1 [Compound 386] |
| B (EC1.5 1-25 uM) | A (Fold activation >200%) | O=C(Nc1cccc2[nH]c(-c3cc(F)ccc3C(F)(F)F)nc12)c1cnccn1 [Compound 387] |
| B (EC1.5 1-25 uM) | A (Fold activation >200%) | O=C(Nc1cccc2[nH]c(-c3cccc(N4CCOCC4)c3)nc12)c1cnccn1 [Compound 388] |
| B (EC1.5 1-25 uM) | A (Fold activation >200%) | O=C(Nc1cccnc1)c1cccc2[nH]c(-c3cccc(N4CCOCC4)n3)nc12 [Compound 389] |
| B (EC1.5 1-25 uM) | B (Fold Activation <200%) | O=C(Nc1cccnc1)c1cccc2[nH]c(-c3cccc(N4CCCCC4)n3)nc12 [Compound 390] |
| B (EC1.5 1-25 uM) | A (Fold activation >200%) | O=C(Nc1cccc2[nH]c(-c3cccc(N4CCOCC4)c3)nc12)c1cscn1 [Compound 391] |
